# Measurements as given in the supplement of paper PMC3974653.
# Structures can show the parent of a compound that is named as a salt.
# Test system: MTT (mouse pheochromocytoma)
# Experiment: IC50 of cell viability (ATP content)
# Settings: (24 or 48 h)
# How it was run: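 MTT mouse pheochromocytoma cells were seeded into white 1536-well plates at 5 µl per well from a 200,000 cells/ml suspension in DMEM with 5% FBS and 1% horse serum, then cultured overnight at 37°C, 5% CO2. A pintool added 23 nl of library compound in DMSO at 8 concentrations (final 0.5 nM to 46 µM) for 24 or 48 hrs, and CellTiter-Glo ATP luminescence was read after 15 minutes. Signals were scaled so that positive-control wells equalled 100% and DMSO wells 0%. IC50 values were derived by fitting a four-parameter logistic curve.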
row,SMILES,IC50 of cell viability [µM]
1,O=C([O-])c1cc(Oc2ccc(C(F)(F)F)cc2Cl)ccc1[N+](=O)[O-] [Acifluorfen sodium],> 46
2,CC1(O\C(=C/C1=O)C(O)=O)C2=CC=CC=C2 (configuration not stated) [Acifran],> 46
3,O=C(O)C(=O)Nc1cccc(-c2nnn[nH]2)c1 [Acitazanolast],> 46
4,CC(=O)O[C@@H](C)C(=O)OCC[N+](C)(C)C.CC(=O)O[C@@H](C)C(=O)OCC[N+](C)(C)C.O=S(=O)([O-])c1cccc2c(S(=O)(=O)[O-])cccc12 [Aclatonium Napadisilate],> 46
5,CC(=O)O[C@@H](C)C(=O)OCC[N+](C)(C)C.CC(=O)O[C@@H](C)C(=O)OCC[N+](C)(C)C.O=S(=O)([O-])c1cccc2c(S(=O)(=O)[O-])cccc12 [Aclatonium napadisilate],> 46
6,O=C(O)COc1ccccc1/C=N/NC(=O)c1ccncc1 [Aconiazida],> 46
7,CC(=O)OCC(=O)Nc1cc(C#N)cc(NC(=O)COC(C)=O)c1Cl [Acreozast],> 46
8,Cc1ccc(/C(=C\CN2CCCC2)c2cccc(/C=C/C(=O)O)n2)cc1 [Acrivastine],> 46
9,CC(=O)Nc1ccc(CC(=O)O)cc1 [Actarit],> 46
10,CCOc1ccc(S(=O)(=O)O)c2cccnc12 [Actinoquinolum],> 46
11,N\C1=N\C2=C(N=C[N]2COCCO)C(=O)N1 [Acyclovir],> 46
12,O=C(COc1ccc(Cl)cc1)OCCNC12C[C@H]3C[C@@H](C1)C[C@@H](C2)C3 [Adafenoxate],> 46
13,COc1ccc(-c2ccc3cc(C(=O)O)ccc3c2)cc1C12CC3CC(CC(C3)C1)C2 [Adapalene],> 46
14,Nc1ncnc2c1ncn2CCOCP(=O)(O)O [Adefovir],> 46
15,"Nc1ncnc2c1ncn2[C@@H]1O[C@@H]2COP(=O)(O)O[C@H]2[C@H]1O [Adenosine 3',5'-cyclic monophosphate]",> 46
16,O=S([O-])CNc1ccc([S+](=O)([O-])c2ccc(NCS(=O)[O-])cc2)cc1 [Adesulfone sodium],> 46
17,O=C(O)CCCCC(=O)O [Adipic acid],> 46
18,CNCC(=O)c1ccc(O)c(O)c1 [Adrenone],> 46
19,COc1cccc2c1C(=O)c1c(O)c3c(c(O)c1C2=O)C[C@](O)(C(=O)CO)C[C@@H]3O[C@H]1C[C@H](N)[C@@H](O)[C@H](C)O1 [Adriamycin-DNA hydrochloride],> 46
20,CC[C@@H]1[C@@H]2C[C@H]3[C@H]4N(C)c5ccccc5[C@@]45C[C@H]([C@H]2[C@H]5O)[N@@]3[C@H]1O [Ajmaline],> 46
21,C=CCN1C(=O)C(CC(C)C)NC1=S (configuration not stated) [Albutoin],> 46
22,C=CCOc1ccc(CC(=O)O)cc1Cl [Alclofenac],> 46
23,CCC(=O)OCC(=O)[C@@]1(OC(=O)CC)[C@H](C)C[C@@H]2[C@@H]3[C@H](Cl)C\C4=C\C(=O)\C=C/[C@@]4(C)[C@H]3[C@@H](O)C[C@@]12C [Alclometasone dipropionate],> 46
24,C=CC[N@@H+]1/C(=C/CO)[C@@H]2C[C@H]3[C@H]1CC[C@]31c3ccccc3N3/C=C4/[C@@H]5C[C@@H]6[C@H](CC[C@@]67c6ccccc6N(/C=C\2[C@H]31)[C@@H]47)[N@@H+](CC=C)/C5=C\CO [Alcuronium chloride],> 46

row,SMILES,IC50 of cell viability [µM]
1,NCCCC(O)(P(=O)(O)O)P(=O)(O)O [Alendronate sodium],> 46
2,CC(=O)OCC(=O)[C@@H]1CC[C@@H]2[C@H]3CC[C@H]4C[C@@H](O)CC[C@]4(C)[C@@H]3C(=O)C[C@]21C [Alfadolone acetate],> 46
3,COc1cc2nc(N(C)CCCNC(=O)[C@H]3CCCO3)nc(N)c2cc1OC [Alfuzosin hydrochloride],> 46
4,C=CCc1cc(OC)c(O)c(C(=O)NCCO)c1 [Alibendol],> 46
5,C=CCN(C1=NCCN1)c1c(Cl)cccc1Cl [Alinidine],> 46
6,COCCCOc1cc(C[C@@H](C[C@H](N)[C@@H](O)C[C@H](C(=O)NCC(C)(C)C(N)=O)C(C)C)C(C)C)ccc1OC [Aliskiren],> 46
7,NC(=O)N[C@H]1NC(=O)NC1=O [Allantoin],> 46
8,CC(C)=CC1C(C(=O)OC\2CC(=O)\C(=C2C)CC=C)C1(C)C (configuration not stated) [Allethrin],> 46
9,COC(=O)C1C(OC(=O)c2ccccc2)CC2CCC1N2C (configuration not stated) [Allococaine],> 46
10,Oc1ncnc2[nH]ncc12 [Allopurinol],> 46
11,C=CCN=C=S [Allyl isothiocyanate],> 46
12,C=CC[C@]1(O)CCC2C3CCC4=CCCCC4C3CCC21C (some centres not stated) [Allylestrenol],> 46
13,C=CCNC(N)=S [Allylthiourea],> 46
14,Cc1cn([C@H]2CC(F)[C@@H](CO)O2)c(=O)[nH]c1=O (some centres not stated) [Alovudine],> 46
15,Cc1c(C)c2c(c(C)c1O)CC[C@@](C)(CCC[C@H](C)CCC[C@H](C)CCCC(C)C)O2 [Alpha-Vitamin E],> 46
16,CCCN(CCC)C(=O)Cc1c(-c2ccc(Cl)cc2)nc2ccc(Cl)cn12 [Alpidem],> 46
17,CCCCC[C@H](O)/C=C\[C@@H]1[C@H](O)CC(=O)[C@@H]1CCCCCCC(=O)O [Alprostadil],> 46
18,O=C(O)CN1C(=O)c2cccc3cccc(c23)C1=O [Alrestatin],> 46
19,O=C(c1ccc(F)cc1)C1CCN(CCn2c(=S)[nH]c3ccccc3c2=O)CC1 [Altanserin hydrochloride],> 46
20,C=CCC1(O)CCC2C3CCC4=CC(=O)CCC4=C3C=CC21C (configuration not stated) [Altrenogest],> 46
21,CN(C)c1nc(N(C)C)nc(N(C)C)n1 [Altretamine],> 46
22,CCCCCCCCCCCCCCCCCC(=O)[O][Al]([OH])[OH] [Aluminum monostearate],> 46
23,CC(=O)[O][Al]([OH])[O]C(C)=O [Aluminum subacetate],> 46
24,CCN(CCCc1ccccc1)CCCc1ccccc1.O=C(O)CC(O)(CC(=O)O)C(=O)O [Alverine citrate salt],> 46

row,SMILES,IC50 of cell viability [µM]
1,Nc1ncnc(Nc2ccccc2)n1 [Amanozine],> 46
2,CC1(C)SC2[C@@H](/N=C/N3CCCCCC3)C(=O)N2[C@H]1C(=O)O (some centres not stated) [Amdinocillin],> 46
3,Nc1c(CC(=O)[O-])cccc1C(=O)c1ccccc1 [Amfenac Sodium],> 46
4,NCCCNCCSP(=O)(O)O [Amifostine],> 46
5,NCC[C@H](O)C(=O)N[C@@H]1C[C@H](N)[C@@H](O[C@H]2O[C@H](CN)[C@@H](O)[C@H](O)[C@H]2O)[C@H](O)[C@H]1O[C@H]1O[C@H](CO)[C@@H](O)[C@H](N)[C@H]1O [Amikacin sulfate],> 46
6,O=C(O)CCCCCCNC1c2ccccc2CCc2ccccc21 [Amineptine],> 46
7,NCCCCCC(=O)O [Aminocaproic acid],> 46
8,Nc1ccc(C(=O)NCC(=O)O)cc1 [Aminohippuric acid],> 46
9,CCCCc1oc2ccccc2c1C(=O)c1cc(I)c(OCCN(CC)CC)c(I)c1 [Amiodarone hydrochloride],> 46
10,CCN1CCCC1CNC(=O)c1cc([S+](=O)([O-])CC)c(N)cc1OC (configuration not stated) [Amisulpride],> 46
11,CN(C)CCC=C1c2ccccc2CCc2ccccc21 [Amitriptyline],> 46
12,CCOC(=O)C/1=C(COCCN)/N\C(=C(C1C2=C(Cl)C=CC=C2)\C(=O)OC)C (configuration not stated) [Amlodipine besylate],> 46
13,CCN(CC)Cc1cc(Nc2ccnc3cc(Cl)ccc23)ccc1O.Cl.Cl.O.O [Amodiaquin dihydrochloride dihydrate],> 46
14,COc1cc(C(=O)OC(COCCC(C)C)CN2CCOCC2)cc(OC)c1OC (configuration not stated) [Amoproxan],> 46
15,CCNC(=O)N1CCN(CCCC(c2ccc(F)cc2)c2ccc(F)cc2)CC1.Cl [Amperozide hydrochloride],> 46
16,C[C@@H]1[C@H](O)[C@@H](C)/C=C/C=C/C=C/C=C/C=C/C=C/C=C/[C@H](O[C@@H]2O[C@H](C)[C@@H](O)[C@H](N)[C@@H]2O)C[C@@H]2O[C@](O)(C[C@@H](O)C[C@@H](O)[C@H](O)CC[C@@H](O)C[C@@H](O)CC(=O)O[C@H]1C)C[C@H](O)[C@H]2C(=O)O [Amphotericin B],> 46
17,CC1(C)SC2C(NC(=O)C(N)c3ccccc3)C(=O)N2C1C(=O)O (configuration not stated) [Ampicillin A],> 46
18,CC(C)CN(C[C@@H](O)[C@H](Cc1ccccc1)NC(=O)O[C@H]1CCOC1)[S+](=O)([O-])c1ccc(N)cc1 [Amprenavir],> 46
19,CCCc1ncc(C[n+]2ccccc2C)c(N)n1.Cl.[Cl-] [Amprolium hydrochloride],> 46
20,CN1N(C2=CC=CC=C2)C(=O)C(=C1/C)/N [Ampyrone],> 46
21,Nc1cc(-c2ccncc2)c[nH]c1=O [Amrinone],> 46
22,COc1cc(N[S+](C)(=O)[O-])ccc1Nc1c2ccccc2nc2ccccc12.Cl [Amsacrine hydrochloride],> 46
23,CC[C@](C)(CN(C)C)OC(=O)c1ccccc1 [Amyleine hydrochloride],> 46
24,O=C1CN2Cc3c(ccc(Cl)c3Cl)NC2=N1 [Anagrelide hydrochloride],> 46
